Laboratory results published in ChEMBL document CHEMBL5038591, “Identification of a Novel TAR RNA-Binding Protein 2 Modulator with Potential Therapeutic Activity against Hepatocellular Carcinoma” (J Med Chem, 2021).
Active and inactive are the calls of the source.

Columns and labels:
MDA-MB-231 [1] = assay: Antiproliferative activity against human MDA-MB-231 cells incubated for 24 hrs by alamar blue assay; details: MDA-MB-231, 24 h
SK-HEP1 [2] = assay: Antiproliferative activity against human SK-HEP1 cells assessed as increase in miR-21-5p level at 20 uM by qRT-PCR analysis; assay type: functional, cell-based
SK-HEP1 [3] = assay: Antiproliferative activity against human SK-HEP1 cells assessed as decrease in miR135a-5p level at 20 uM by qRT-PCR analysis; assay type: functional, cell-based
HeLa [4] = assay: Antiproliferative activity against human HeLa cells incubated for 24 hrs by alamar blue assay
SK-HEP1 [5] = assay: Inhibition of epithelial-mesenchymal transition in human SK-HEP1 cells assessed as change in E-cadherin expression at 10 to 50 uM incubated for 24 hrs by Western blot analysis; assay type: functional, cell-based; details: dose 10-50 µM
MDA-MB-231 [6] = assay: Inhibition of colony formation in human MDA-MB-231 cells at 30 uM incubated for 14 days by crystal violet staining based assay; assay type: functional, cell-based; details: time 14.0 day
SK-HEP1 [7] = assay: Inhibition of cell invasion in human SK-HEP1 cells at 30 uM incubated for 12 hrs by crystal violet staining based transwell assay; assay type: functional
[8] = biological target: MAP kinase p38 (Homo sapiens) (UniProt O15264+Q15759+Q16539+P53778); assay: Inhibition of p38 phosphorylation in human SK-HEP1 cells at 30 uM by Western blot analysis; assay type: cell-based
HepG2 = assay: Antiproliferative activity against human HepG2 cells at 25 uM incubated for 24 hrs by alamar blue assay; assay type: functional, cell-based
[9] = biological target: Signal transducer and activator of transcription 3 (Homo sapiens) (UniProt P40763); assay: Inhibition of STAT3 phosphorylation in human SK-HEP1 cells at 30 uM by Western blot analysis; assay type: cell-based
Sequence of Signal transducer and activator of transcription 3 (Homo sapiens) (P40763 whole entry): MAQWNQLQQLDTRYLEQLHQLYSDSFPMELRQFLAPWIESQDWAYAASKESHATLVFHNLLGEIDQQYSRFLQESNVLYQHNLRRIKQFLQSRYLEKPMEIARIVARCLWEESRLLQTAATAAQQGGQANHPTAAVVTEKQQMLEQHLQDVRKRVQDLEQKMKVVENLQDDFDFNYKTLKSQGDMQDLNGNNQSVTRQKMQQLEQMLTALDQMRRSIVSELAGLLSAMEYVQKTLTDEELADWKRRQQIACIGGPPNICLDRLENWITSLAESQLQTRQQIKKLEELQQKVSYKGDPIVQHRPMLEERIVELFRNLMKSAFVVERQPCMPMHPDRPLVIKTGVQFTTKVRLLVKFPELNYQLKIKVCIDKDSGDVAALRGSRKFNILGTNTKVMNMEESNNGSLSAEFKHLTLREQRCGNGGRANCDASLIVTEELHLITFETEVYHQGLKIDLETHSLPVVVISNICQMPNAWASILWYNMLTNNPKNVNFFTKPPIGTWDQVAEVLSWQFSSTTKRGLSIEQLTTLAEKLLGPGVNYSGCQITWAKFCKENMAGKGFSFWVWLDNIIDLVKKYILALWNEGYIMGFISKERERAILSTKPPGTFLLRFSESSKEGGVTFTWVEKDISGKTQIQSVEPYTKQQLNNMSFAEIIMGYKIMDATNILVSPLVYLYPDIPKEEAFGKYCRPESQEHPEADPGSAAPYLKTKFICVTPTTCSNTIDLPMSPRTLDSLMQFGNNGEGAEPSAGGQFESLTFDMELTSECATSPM

SK-HEP1 [10] = assay: Effect on human SK-HEP1 cells assessed as decrease in miR-10b-5p level at 10 to 50 uM by qRT-PCR analysis; assay type: functional, cell-based; details: dose 10-50 µM
SK-HEP1 [11] = assay: Antiproliferative activity against human SK-HEP1 cells assessed as increase in miR-122-5p level at 20 uM by qRT-PCR analysis; assay type: functional, cell-based
HCT-116 [12] = assay: Inhibition of colony formation in human HCT-116 cells at 30 uM incubated for 14 days by crystal violet staining based assay; assay type: functional, cell-based; details: time 14.0 day
SK-HEP1 [13] = assay: Effect on human SK-HEP1 cells assessed as increase in miR-497-5p level by qRT-PCR analysis; assay type: functional, cell-based
SK-HEP1 [14] = assay: Antiproliferative activity against human SK-HEP1 cells assessed as increase in miR-10a-5p level at 20 uM by qRT-PCR analysis; assay type: functional, cell-based
SK-HEP1 [15] = assay: Antiproliferative activity against human SK-HEP1 cells assessed as increase in miR-222-5p level at 20 uM by qRT-PCR analysis; assay type: functional, cell-based
[16] = biological target: Transcription factor p65 (Homo sapiens) (UniProt Q04206); assay: Inhibition of p65 phosphorylation in human SK-HEP1 cells at 30 uM by Western blot analysis; assay type: cell-based
Sequence of Transcription factor p65 (Homo sapiens) (Q04206 whole entry): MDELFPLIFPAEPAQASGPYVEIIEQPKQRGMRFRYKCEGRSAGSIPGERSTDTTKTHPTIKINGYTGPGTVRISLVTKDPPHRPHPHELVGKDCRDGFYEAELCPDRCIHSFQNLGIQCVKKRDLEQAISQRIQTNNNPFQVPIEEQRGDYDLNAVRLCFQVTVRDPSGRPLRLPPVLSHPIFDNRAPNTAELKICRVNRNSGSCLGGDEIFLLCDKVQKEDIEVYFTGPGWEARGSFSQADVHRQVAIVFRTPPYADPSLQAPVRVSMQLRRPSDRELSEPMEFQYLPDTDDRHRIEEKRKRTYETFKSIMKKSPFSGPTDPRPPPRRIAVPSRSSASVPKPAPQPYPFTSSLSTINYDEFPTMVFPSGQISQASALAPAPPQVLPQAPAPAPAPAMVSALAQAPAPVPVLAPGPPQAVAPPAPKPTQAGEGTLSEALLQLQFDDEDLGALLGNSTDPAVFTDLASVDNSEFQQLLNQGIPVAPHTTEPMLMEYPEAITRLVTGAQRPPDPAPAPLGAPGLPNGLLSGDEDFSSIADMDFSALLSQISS

SK-HEP1 [17] = assay: Induction of cell cycle arrest in human SK-HEP1 cells assessed as G2 phase accumulation at 20 uM incubated for 24 hrs by propidium iodide staining based flow cytometry analysis (reference value: 24.12%); assay type: functional
Huh-7 [18] = assay: Antiproliferative activity against human Huh-7 cells at 25 uM incubated for 24 hrs by alamar blue assay; assay type: functional, cell-based
SK-HEP1 [19] = assay: Inhibition of cell migration in human SK-HEP1 cells knockdown TRBP at 20 uM measured after 12 hrs using crystal violet staining inverted microscope based transwell assay; assay type: functional
Huh-7 [20] = assay: Inhibition of colony formation in human Huh-7 cells at 30 uM incubated for 14 days by crystal violet staining based assay; assay type: functional, cell-based; details: time 14.0 day
Mus musculus = assay: Downregulation of UBE2S expression in mouse liver at 40 mg/kg measured after 30 days by immunohistochemical staining analysis; assay type: functional, organism-based; details: time 30.0 day
MHCC97 [21] = assay: Antiproliferative activity against human MHCC97 cells at 25 uM incubated for 24 hrs by alamar blue assay; assay type: functional, cell-based
MHCC97 [22] = assay: Antitumor activity against human MHCC97 cells xenografted in SCID mouse assessed as decrease in tumor size at 40 mg/kg, ip administered once every 3 days and measured after 10 days; assay type: functional, organism-based; details: time 10.0 day
HeLa [23] = assay: Antiproliferative activity against human HeLa cells at 25 uM incubated for 24 hrs by alamar blue assay; assay type: functional, cell-based
SK-HEP1 [24] = assay: Effect on Dicer protein expression in human SK-HEP1 cells at 30 uM after 24 hrs by immunoblot analysis; assay type: functional, cell-based
SK-HEP1 [25] = assay: Inhibition of epithelial-mesenchymal transition in human SK-HEP1 cells assessed as change in vimentin expression at 10 to 50 uM incubated for 24 hrs by Western blot analysis; assay type: functional, cell-based; details: dose 10-50 µM
[26] = biological target: Mitogen-activated protein kinase; ERK1/ERK2 (Homo sapiens) (UniProt P27361+P28482); assay: Inhibition of ERK1/2 phosphorylation in human SK-HEP1 cells at 30 uM by Western blot analysis; assay type: cell-based
Sequence of Mitogen-activated protein kinase; ERK1/ERK2 (Homo sapiens) (P27361 whole entry, looked up): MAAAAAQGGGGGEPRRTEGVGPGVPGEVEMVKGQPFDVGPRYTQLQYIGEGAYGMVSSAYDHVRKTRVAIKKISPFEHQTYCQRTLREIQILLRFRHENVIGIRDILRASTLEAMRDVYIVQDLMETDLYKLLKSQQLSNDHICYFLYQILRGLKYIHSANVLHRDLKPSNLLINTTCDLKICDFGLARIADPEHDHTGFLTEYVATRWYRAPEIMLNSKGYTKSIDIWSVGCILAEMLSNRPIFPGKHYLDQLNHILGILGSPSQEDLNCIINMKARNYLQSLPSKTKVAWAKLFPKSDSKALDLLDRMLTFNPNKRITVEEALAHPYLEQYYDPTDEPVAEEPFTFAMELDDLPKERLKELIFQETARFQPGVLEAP
Sequence of Mitogen-activated protein kinase; ERK1/ERK2 (Homo sapiens) (P28482 whole entry, looked up): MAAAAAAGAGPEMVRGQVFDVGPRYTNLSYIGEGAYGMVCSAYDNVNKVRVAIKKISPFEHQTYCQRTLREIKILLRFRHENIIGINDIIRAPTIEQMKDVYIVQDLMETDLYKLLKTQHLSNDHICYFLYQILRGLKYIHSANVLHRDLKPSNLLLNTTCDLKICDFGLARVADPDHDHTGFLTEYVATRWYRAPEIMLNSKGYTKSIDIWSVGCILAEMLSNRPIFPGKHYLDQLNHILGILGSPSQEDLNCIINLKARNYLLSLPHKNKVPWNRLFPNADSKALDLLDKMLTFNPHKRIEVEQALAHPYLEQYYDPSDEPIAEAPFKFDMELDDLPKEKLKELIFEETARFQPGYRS

SK-HEP1 [27] = assay: Inhibition of MEK phosphorylation in human SK-HEP1 cells at 30 uM by Western blot analysis; assay type: cell-based
MHCC97 [28] = assay: Inhibition of cell migration in human MHCC97H cells at 30 uM incubated for 12 hrs by crystal violet staining based transwell assay; assay type: functional
MHCC97 [29] = assay: Antitumor activity in human MHCC97 cells xenografted in SCID mouse assessed as suppression of tumor growth at 40 mg/kg, ip administered once every 3 day for 30 days by bioluminescence analysis; assay type: functional, organism-based; details: time 30.0 day
SK-HEP1 [30] = assay: Effect on human SK-HEP1 cells assessed as increase in miR-146a-5p level by qRT-PCR analysis; assay type: functional, cell-based
SK-HEP1 [31] = assay: Effect on human SK-HEP1 cells assessed as decrease in miR-224-5p level at 10 to 50 uM by qRT-PCR analysis; assay type: functional, cell-based; details: dose 10-50 µM
SK-HEP1 [32] = assay: Antiproliferative activity against human SK-HEP1 cells overexpressing TRBP at 20 uM measured by crystal violet dye based colony formation assay; assay type: functional, cell-based
HCT-116 [33] = assay: Antiproliferative activity against human HCT-116 cells incubated for 24 hrs by alamar blue assay; details: HCT-116, 24 h
MHCC97 [34] = assay: Antitumor activity in human MHCC97 cells xenografted in SCID mouse assessed as reduction in infiltration of inflammatory cells in left outer lobe of liver at 40 mg/kg, ip administered once every 3 days measured after 30 days by H and E staining based immunohistochemical analysis; assay type: functional, organism-based; details: time 30.0 day
SK-HEP1 [35] = assay: Antiproliferative activity against human SK-HEP1 cells assessed as increase in miR-214-5p level at 20 uM by qRT-PCR analysis; assay type: functional, cell-based
SK-HEP1 [36] = assay: Inhibition of epithelial-mesenchymal transition in human SK-HEP1 cells assessed as change in N-cadherin expression at 10 to 50 uM incubated for 24 hrs by Western blot analysis; assay type: functional, cell-based; details: dose 10-50 µM
SK-HEP1 [37] = assay: Effect on AGO2 protein expression in human SK-HEP1 cells at 30 uM after 24 hrs by immunoblot analysis; assay type: functional, cell-based
MHCC97 [38] = assay: Antitumor activity in human MHCC97 cells xenografted in SCID mouse assessed as reduction in infiltration of inflammatory cells in left middle lobe of liver at 40 mg/kg, ip measured after 30 days by H and E staining based immunohistochemical analysis; assay type: functional, organism-based; details: time 30.0 day

COc1cc2c(c(O)c1OC)-c1c(cc3c(c1OC)OCO3)C[C@H](C)[C@H](C)C2
19.68%: Activity (SK-HEP1 [17])
56.6 µM: IC50 (MDA-MB-231 [1])
active: Activity (SK-HEP1 [2]) | inhibition (MDA-MB-231 [6]) | inhibition (SK-HEP1 [7]) | Activity (HepG2) | Activity (SK-HEP1 [10]) | Activity (SK-HEP1 [11]) | inhibition (HCT-116 [12]) | Activity (SK-HEP1 [13]) Dose-Dependent Effect | inhibition [16] | Activity (Huh-7 [18]) | inhibition (Huh-7 [20]) | Activity (Mus musculus) | Activity (MHCC97 [21]) | Activity (MHCC97 [22]) | Activity (HeLa [23]) | inhibition [26] | inhibition (SK-HEP1 [27]) | inhibition (MHCC97 [28]) | Activity (MHCC97 [29]) | Activity (SK-HEP1 [30]) Dose-Dependent Effect | Activity (SK-HEP1 [31]) | Activity (SK-HEP1 [32]) | Activity (MHCC97 [34]) | Activity (SK-HEP1 [35]) | Activity (MHCC97 [38])
inactive: Activity (SK-HEP1 [3]) | inhibition (SK-HEP1 [5]) | inhibition [8] | inhibition [9] | Activity (SK-HEP1 [14]) | Activity (SK-HEP1 [15]) | inhibition (SK-HEP1 [19]) | Activity (SK-HEP1 [24]) | inhibition (SK-HEP1 [25]) | inhibition (SK-HEP1 [36]) | Activity (SK-HEP1 [37])
55.4 µM: IC50 (HCT-116 [33])
32.8 µM: IC50 (HeLa [4])
